Data: paper PMC5577515, “Peptide‐Directed Binding for the Discovery of Modulators of α‐Helix‐Mediated Protein–Protein Interactions: Proof‐of‐Concept Studies with the Apoptosis Regulator Mcl‐1” (Angewandte Chemie (International Ed. in English), 2017)
Like-named read-outs stand apart in the source and are kept apart here.

Columns and labels:
Bcl-2 = target: T1, Bcl-2 (Homo sapiens, UniProt P10415, DEL35-91/INS34DVEENRTEAPEGTESE); assay: Competitive FA assay, FITC-Bid displacement from Bcl-2; format: binding; conditions: 5 nM FITC-Bid, 30 nM Bcl-2; up to 100 µM compound
T1 construct: The Bcl-2 protein used in our study has the same construction as that used in the work of Fesik; purchased Dundee Cell Product Ltd
T1 sequence (P10415 with tags, fused parts or gaps INS34DVEEN/V35R/G36T/A37E/P40E/DEL42-87/P88T/V89E/P90S/P91E): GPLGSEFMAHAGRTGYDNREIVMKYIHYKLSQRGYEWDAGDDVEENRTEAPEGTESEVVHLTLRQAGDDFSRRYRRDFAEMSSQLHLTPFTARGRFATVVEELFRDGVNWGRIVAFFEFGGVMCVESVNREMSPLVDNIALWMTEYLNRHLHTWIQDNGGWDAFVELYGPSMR
Protocol: For binding each well contained 10 µL of Bcl -2 protein in 10-fold dilutions (0.90 pM to 9.0 µM) […]
(§1) were dissolved in PBS: 0.05% Tween -20 buffer at pH 7.4. Reagents were incubated for 30 min at room temperature prior to reading. Bubbles were removed and 8 data points were generated.
Figure S 3: Fluorescence Anisotropy direct titration. […] Normalized […]
(§2) (1 picture or pasted object on this page, not shown here)

MiaPaCa-2 cells = assay: MTS cytotoxicity assay, MiaPaCa-2; format: cell-based; conditions: 72 h, 37 °C, triplicate, at least three experiments, errors = transformed greater extreme of standard error, SEM, read-out: MiaPaCa-2 cell growth inhibition IC50
Protocol: (§3) CUSTOM_[…] ("<1>=[N+]",("charge", 0, 2)) […]
(§4) CUSTOM_[…] ("<1>=[N]=[N]",("bond",1,(2,3))) […]
(§5) CUSTOM_[…] ("<1>([C]=[C])=[N][N]",("bond",1,(3,5))) […]
(§6) The MiaPaCa-2 cell line, BxPC-3 cell line and AsPC-1 cell line were purchased from the European Collection of Cell Cultures (ECACC, Porton Down, UK). MiaPaCa-2 cells were cultured in DMEM media with 2 mM L-glutamine, 100 U/mL penicillin, 100 µg/mL streptomycin and 10% FCS.
(§7) BxPC-3 cells and AsPC-1 cells were cultured in RPMI-1640 media containing 2 mM L-glutamine, 100 U/mL penicillin, 100 µg/mL streptomycin and 10% FCS. Cells were sub-cultured twice weekly and maintained at 37 °C and 5% CO2.
(§8) The anti-proliferative activity of the compounds studied was assessed by MTS assay (Promega) following the manufacturer’s instructions. Cells were seeded at 5 x 103 / 100 μL in a 96-well plate and left untreated or treated with DMSO (vehicle control), or compounds 1-4 (100 μM – […], in well concentration) in triplicate for 72 h at 37 °C with 5% CO2. Following this, MTS assay reagent was added to each well and the plates incubated for 4 h at 37 °C with 5% CO2. The absorbance was measured at 492 nm using the BMG Labtech POLARstarOPTIMA microplate reader. […]

Bcl-xL = target: T2, Bcl-xL (Homo sapiens, UniProt Q07817, DEL45-84); assay: Competitive FA assay, FITC-Bid displacement from Bcl-xL; format: binding; conditions: 5 nM FITC-Bid, up to 100 µM compound
T2 construct: The Bcl-xL protein used in our study is a truncated construction of the full-length protein, with; purchased Dundee Cell Product Ltd
T2 sequence (Q07817 with tags, fused parts or gaps DEL45-84): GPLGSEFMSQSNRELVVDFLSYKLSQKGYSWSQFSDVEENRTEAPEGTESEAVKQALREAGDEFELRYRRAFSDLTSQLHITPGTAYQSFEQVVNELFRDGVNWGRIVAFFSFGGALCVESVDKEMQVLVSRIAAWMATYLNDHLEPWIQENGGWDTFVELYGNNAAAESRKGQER
Protocol: as §1, §2
Inhibition screens were carried out using […]

Mcl-1 = target: T3, Mcl-1 (UniProt P97287+Q07820); assay: Competitive fluorescence anisotropy (FA) assay, FITC-NoxaB displacement from Mcl-1; format: binding; conditions: Table 2; inhibition of binding of 5 nM FITC-NoxaB to 10 nM Mcl-1; PBS, 0.05% Tween-20, pH 7.4; non-linear regression of at least three experiments; errors = transformed greater extreme of standard error; SEM; read-out: FA IC50
T3 construct: amino acid residues 152-189 of mouse Mcl-1 fused with amino acid residues 209-327 of; 8 x His (N); TEV site (N); made in house; host or cells: E. coli BL21(DE3)pLysS
T3 sequence (P97287 152-189 limits assumed): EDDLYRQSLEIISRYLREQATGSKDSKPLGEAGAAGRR
T3 sequence (Q07820 209-327 limits assumed): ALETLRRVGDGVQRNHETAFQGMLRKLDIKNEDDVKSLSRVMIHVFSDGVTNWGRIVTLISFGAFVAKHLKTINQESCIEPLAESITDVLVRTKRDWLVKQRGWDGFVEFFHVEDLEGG
Protocol: Fmoc, 9-fluorenylmethylcarbony. IC50 determined by non -linear regression of at least three experiments.
4. Fluorescence Anisotropy Binding Assay
Fluorescence anisotropy was carried out on a BMG Labtech clariostar microplate reader with a fluorescence anisotropy optic measuring at 482/530 nm. Low -binding, Corning 96 -well black plates were used and all reagents used in the assay were biological grade and purchased from Sigma Aldrich and Novabioche m. All solutions were made using MilliQ water .
Anisotropy values were automatically calculated using the following formula […]
Where r = anisotropy, l a = parallel emission light, lb = perpendicular emission light and I = total […]
KD was determined using GraphPad Prism Version 6.0 software, using the One Site – Total binding […]
Where Bmax is the maximum specific binding, KD is the equilibrium binding constant, and NS is the slope of nonspecific binding. […]
IC50 was determined using GraphPad Prism Version 6.0 software, using a four-parameter logistic model, according to precedent from Ottmann and co-workers.[5] Errors are the transformed greater extreme of the standard error. […]
For binding each well contained 10 µL of Mcl -1 protein in 10-fold dilutions (0.37 pM to 3.7 µM) […]
protein were dissolved in PBS: 0.05% Tween -20 buffer at pH 7.4. Reagents were incubated for 30 min at room temperature prior to reading. Bubbles were removed and 8 data points were generated.
Figure S 1: Fluorescence Anisotropy direct titration.
To confirm reproducibility of
(µ) and standard deviations (σ) were inputted into the following equation:
Inhibition screens were carried out using 10 nM Mcl -1, 5 nM fluorescently-tagged peptide and 100 µM of inhibitor. Compounds were dissolved in DMSO. […]
control (DMSO) were used to define the mini mum and maximum values and ensure the assay was […]
(1 picture or pasted object on this page, not shown here) […]
Bubbles were removed and 8 data points were generated. […]

BxPC-3 cells [1] = assay: MTS cytotoxicity assay, BxPC-3; format: cell-based; conditions: 72 h, 37 °C, triplicate, at least three experiments, errors = transformed greater extreme of standard error, SEM, read-out: BxPC-3 cell growth inhibition IC50
Protocol: as §3, §4, §5, §6, §7, §8

BxPC-3 cells [2] = assay: Annexin-V-FLUOS staining, phosphatidylserine externalization; format: cell-based; conditions: 4 h, fluorescence microscopy
Protocol: Figure 2 Representative small molecules induce hallmarks of apoptosis. A) Increase of caspase‐3 activation in BxPC‐3 cells 4 h after treatment. B) Externalization of phosphatidylserine, a hallmark of apoptosis, was evaluated by exposing BxPC‐3 cells to compounds 18 (25 μM), 20 (5 μM), 21 (5 μM), and 23 (25 μM) for 4 h followed by annexin‐V‐FLUOS. Images were taken at 10× magnification with a GFP filter (top) and white light (bottom). […]
as §3, §4, §5, §6
BxPC-3 cells and AsPC-1 cells were cultured in RPMI-1640 media containing 2 mM L-glutamine, 100 U/mL penicillin, 100 µg/mL streptomycin and 10% FCS. Cells were sub-cultured twice weekly and maintained at 37 °C and 5% CO2. […]
An Annexin-V-FLUOS/Propidium iodide staining kit (Roche Applied Science) was used to detect phosphatidylserine externalization in pancreatic cancer cell line BxPC-3. Cells, seeded in clear 96- […]
and treated with staining kit according to the manufacturer’s protocol. Fluorescence microscopy […]
was used to examine cells and pictures taken with an inverted Leica DMII fluorescence microscope […]
Caspase 3 activation assay […]

AsPC-1 cells = assay: MTS cytotoxicity assay, AsPC-1; format: cell-based; conditions: for IC50: 72 h, 37 °C, triplicate, at least three experiments, errors = transformed greater extreme of standard error, read-out: AsPC-1 cell growth inhibition IC50; for activity against AsPC-1 cells: at the concentrations evaluated (up to 100 μM), result in words
Protocol: as §3, §4, §5, §6, §7, §8

| binding to Bcl-2 in FA assay (Bcl-2) | binding to Bcl-xL in FA assay (Bcl-xL) | IC50 (Mcl-1) | Compound | IC50 (MiaPaCa-2 cells) | IC50 (BxPC-3 cells [1]) | externalization of phosphatidylserine (annexin-V-FLUOS binding) (BxPC-3 cells [2]; 25 μM) | IC50 (AsPC-1 cells) | activity against AsPC-1 cells (AsPC-1 cells) | externalization of phosphatidylserine (annexin-V-FLUOS binding) (BxPC-3 cells [2]; 5 μM) | IC50 (AsPC-1 cells; SEM) |
| --- | --- | --- | --- | --- | --- | --- | --- | --- | --- | --- |
| no appreciable binding | no appreciable binding | 0.186 ± 0.02 µM | COC(=O)C(Cc1cn(C23CC4CC(CC(C4)C2)C3)nn1)NC(=O)OCC1c2ccccc2-c2ccccc21 (centres unmarked) [Compound 18] | 15.2 ± 0.75 µM | 29.8 ± 4.15 µM | induce the externalization of phosphatidylserine | > 100 µM | ineffective |  |  |
|  |  | 0.249 ± 0.051 µM | COC(=O)C(Cc1cn(Cc2ccc(C#N)cc2)nn1)NC(=O)OCC1c2ccccc2-c2ccccc21 (centres unmarked) [Compound 20] | 6.57 ± 3.92 µM | 5.98 ± 1.14 µM |  |  |  | induce the externalization of phosphatidylserine | 2.04 ± 0.62 µM |
| no appreciable binding | no appreciable binding | 1.26 ± 0.142 µM | COC(=O)C(Cc1cn(Cc2ccc(Cl)cc2)nn1)NC(=O)OCC1c2ccccc2-c2ccccc21 (centres unmarked) [Compound 21] | 1.85 ± 3.17 µM | 2.81 ± 0.4 µM |  | > 100 µM | ineffective | induce the externalization of phosphatidylserine |  |
|  |  | 1.7 ± 0.23 µM | COC(=O)[C@H](Cc1cn(Cc2ccccc2F)nn1)NC(=O)OCC1c2ccccc2-c2ccccc21 [Compound 23, methyl (S)-2-((((9H-fluoren-9-yl)methoxy)carbonyl)amino)-3-(1-(2-fluorobenzyl)-1H-1,2,3-triazol-4-yl)propanoate] | 19.5 ± 1.35 µM | 25.2 ± 2.66 µM | induce the externalization of phosphatidylserine |  |  |  | 10.5 ± 1.53 µM |
